From US20260317304A1, “TEAD INHIBITORS AND METHODS OF USE” (Sporos BioDiscovery, Inc., priority 2022, published 2026)

Assays:
MSTO-211H xenograft [1] = test: Mouse xenograft MSTO-211H tumors, study part 2; type: in vivo, BALB/c nude mice; details: PO
Excerpt: (§1) This study evaluated the in vivo anti-tumor efficacy of test compounds in BALB/c nude mice for treatment of MSTO-211H xenograft of lung cancer.
(§2) • Species: Mus Musculus • Strain: BALB/c nude • Age: 6-8 weeks • Sex: female • Body weight: 18-22 g • Number of animals inoculated with tumor: 80 mice • Number of animals enrolled in the treatment: 36 mice • Number of unenrolled animals: 44 mice • Animal supplier: Beijing Vital River Biotechnology Experimental Animal Co. Ltd Certification number: 20170011010591
(§3) The MSTO-211H tumor cells were maintained in RPMI 1640 medium supplemented with 10% Fetal bovine serum and 1% Antibiotic-Antimycotic at 37° C. in an atmosphere of 5% CO2 in air. The tumor cells were routinely subcultured twice weekly by trypsin-EDTA. The cells growing in an exponential growth phase with 95% cell survival or above were harvested, and counted for tumor inoculation.
(§4) Each mouse was inoculated subcutaneously at the right flank with MSTO-211H tumor cells (5×10^6+50% matrigel/0.2 mL) for tumor development. Animals were marked with earrings with unique 6 significant figure number for identification. The treatments of part 1 were started on day 5 after cell inoculation when the average tumor volume reached 181 mm^3. The treatments of part 2 were started on day 16 after cell inoculation when the average tumor volume reached 254 mm^3. The treatments of part 3 were started on day 33 after cell inoculation when the average tumor volume reached 969 mm^3.
(§5) The major endpoint was to determine if the tumor growth could be delayed. Tumor volume was measured twice a week in two dimensions using a caliper, and the volume was expressed in mm^3 using the formula: V=0.5 a×b^2 where a and b are the long and short diameters of the tumor, respectively. The tumor size was then used for calculations of T/C value. The TGI value (in percent) or the T/C value (in percent) is an indication of antitumor effectiveness; T and C are the mean tumor volumes or tumor weights of the treated and control groups, respectively, on a given day.
(§6) TGI was calculated for each group using the formula: TGI (%)=[1−(Ti−T0)/(Vi−V0)]×100; Ti is the average tumor volume of a treatment group on a given day, T0 is the average tumor volume of the treatment group on the day of treatment start, Vi is the average tumor volume of the vehicle control group on the same day with Ti, and V0 is the average tumor volume of the vehicle group on the day of treatment start.
(§7) Relative T/C (%)=TRTV/CRTV×100 (RTV (%)=Vt/V0×100, Vt is the average tumor volume on a given day, V0 is the average tumor volume on the first day of treatment. TRTV is the RTV of a treatment group, and the CRTV is the RTV of the vehicle control group.)
The antitumor effectiveness of part 2 study was analyzed on PG-D30 when vehicle group reached 738 mm^3.
(§8) Summary statistics, including mean and the standard error of the mean (SEM), were provided for the tumor volume of each group at each time point.
(§9) Statistical analysis of difference in tumor volume among the groups was conducted on the data obtained at the end of the study.
(§10) One-tailed T test was performed to compare tumor volumes between two groups. All data are analyzed using GraphPad Prism 6.0. p<0.05 is considered to be statistically significant.

MSTO-211H xenograft [2] = test: Mouse xenograft MSTO-211H tumors, study part 3; type: in vivo, BALB/c nude mice; details: PO
Excerpt: as §1, §2, §3, §4, §5, §6, §7
The antitumor effectiveness of part 3 study was analyzed on PG-D13 when vehicle group reached 1791 mm^3.
as §8, §9, §10

[3] = part 2, day 30, 12.5 mg/kg, BID
[4] = part 3, day 13, 12.5 mg/kg, BID

Compound: Cn1nnc(-c2cc([C@]3(C)CCNC3=O)ccc2Nc2ccc(C(F)(F)F)cc2)n1 (stereo in doubt) [Compound 20, 3-methyl-3-(3-(2-methyl-2H-tetrazol-5-yl)-4-((4-(trifluoromethyl)phenyl)amino)phenyl) pyrrolidin-2-one]
- Tumor size (MSTO-211H xenograft [1]; part 2, day 0, 12.5 mg/kg, BID): 254 ± 30 mm^3
- Tumor size (MSTO-211H xenograft [1]; part 2, day 2, 12.5 mg/kg, BID): 249 ± 37 mm^3
- Tumor size (MSTO-211H xenograft [1]; part 2, day 6, 12.5 mg/kg, BID): 160 ± 39 mm^3
- Tumor size (MSTO-211H xenograft [1]; part 2, day 9, 12.5 mg/kg, BID): 116 ± 36 mm^3
- Tumor size (MSTO-211H xenograft [1]; part 2, day 12, 12.5 mg/kg, BID): 80 ± 13 mm^3
- Tumor size (MSTO-211H xenograft [1]; part 2, day 16, 12.5 mg/kg, BID): 75 ± 10 mm^3
- Tumor size (MSTO-211H xenograft [1]; part 2, day 20, 12.5 mg/kg, BID): 78 ± 14 mm^3
- Tumor size (MSTO-211H xenograft [1]; part 2, day 23, 12.5 mg/kg, BID): 91 ± 10 mm^3
- Tumor size (MSTO-211H xenograft [1]; part 2, day 27, 12.5 mg/kg, BID): 96 ± 6 mm^3
- T/C (MSTO-211H xenograft [1]; [3]): 22.24%
- TGI (MSTO-211H xenograft [1]; [3]): 118.44%
- Tumor size (MSTO-211H xenograft [1]; [3]): 164 ± 15 mm^3
- Tumor Volume (MSTO-211H xenograft [1]; part 2, day 30, 12.5 mg/kg, BID (Table 17)): 164 ± 15 mm^3
- Tumor size (MSTO-211H xenograft [2]; part 3, day 0, 12.5 mg/kg, BID): 963 ± 136 mm^3
- Tumor size (MSTO-211H xenograft [2]; part 3, day 3, 12.5 mg/kg, BID): 740 ± 122 mm^3
- Tumor size (MSTO-211H xenograft [2]; part 3, day 6, 12.5 mg/kg, BID): 591 ± 61 mm^3
- Tumor size (MSTO-211H xenograft [2]; part 3, day 10, 12.5 mg/kg, BID): 444 ± 36 mm^3
- T/C (MSTO-211H xenograft [2]; [4]): 18.94%
- TGI (MSTO-211H xenograft [2]; [4]): 177.56%
- Tumor size (MSTO-211H xenograft [2]; [4]): 339 ± 51 mm^3
- Tumor Volume (MSTO-211H xenograft [2]; part 3, day 13, 12.5 mg/kg, BID (Table 18)): 339 ± 51 mm^3
